In patent publication US20230085307A1, “PYRIDAZINONE COMPOUND AND HERBICIDE” (NISSAN CHEMICAL CORPORATION, priority 2019, published 2023):

Legend:
late watergrass = assay: Test Example 1: herbicidal activity, application before weed generation under submerged conditions (Table 16, symbol A); format: in vivo, late watergrass (Echinochloa oryzicola)
In short: (§1)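 Submerged Wagner pots (alluvial soil, 4 cm water) sown with weed seeds and planted with 2.5-leaf rice seedlings; emulsifiable concentrate diluted in water applied to water surface on sowing day. Held in greenhouse at 25-30 °C; injury scored 0-5 by herbicidal rate after three weeks.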

Japanese bulrush = assay: Test Example 1: herbicidal activity, application before weed generation under submerged conditions (Table 16, symbol B); format: in vivo, Japanese bulrush (Schoenoplectus juncoides)
In short: as §1

oval-leafed pondweed = assay: Test Example 1: herbicidal activity, application before weed generation under submerged conditions (Table 16, symbol C); format: in vivo, oval-leafed pondweed (Monochoria vaginalis)
In short: as §1

barnyard grass [1] = assay: Test Example 3: herbicidal effect by foliage application, Wagner pot (Table 18, symbol H); format: in vivo, barnyard grass (Echinochloa crus-galli); conditions: amount of applied herbicide 320 g/ha
In short: (§2)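 Plants were sown in alluvial soil held under 0.1–0.5 cm standing water and grown 14 days in a greenhouse at 25–30 °C. An emulsifiable formulation, water-diluted to the set dose, was then sprayed onto the foliage, and effects were scored three weeks later using previously defined criteria.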

Chinese sprangletop = assay: Test Example 3: herbicidal effect by foliage application, Wagner pot (Table 18, symbol D); format: in vivo, chinese sprangletop (Leptochloa chinensis); conditions: amount of applied herbicide 320 g/ha
In short: as §2

rice flat sedge = assay: Test Example 3: herbicidal effect by foliage application, Wagner pot (Table 18, symbol E); format: in vivo, rice flat sedge (Cyperus iria); conditions: amount of applied herbicide 320 g/ha
In short: as §2

southern crabgrass [2] = assay: Test Example 4: herbicidal effect by soil treatment (Table 19, symbol F); format: in vivo, southern crabgrass (Digitaria ciliaris); conditions: amount of applied herbicide 320 g/ha
In short: (§3)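 Three weeks of greenhouse growth at 25° C. to 30° C. followed a uniform surface spray of water-diluted emulsion at a predetermined herbicide amount. Seeds had been sown beforehand under about 1.5 cm of sterilized diluvial soil. Grading followed criteria set out in an earlier test.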

green foxtail [3] = assay: Test Example 4: herbicidal effect by soil treatment (Table 19, symbol G); format: in vivo, green foxtail (Setaria viridis); conditions: amount of applied herbicide 320 g/ha
In short: as §3

barnyard grass [4] = assay: Test Example 4: herbicidal effect by soil treatment (Table 19, symbol H); format: in vivo, barnyard grass (Echinochloa crus-galli); conditions: amount of applied herbicide 320 g/ha
In short: as §3

wild oat [5] = assay: Test Example 4: herbicidal effect by soil treatment (Table 19, symbol I); format: in vivo, wild oat (Avena fatua); conditions: amount of applied herbicide 320 g/ha
In short: as §3

Italian ryegrass [6] = assay: Test Example 4: herbicidal effect by soil treatment (Table 19, symbol K); format: in vivo, Italian ryegrass (Lolium multiflorum); conditions: amount of applied herbicide 320 g/ha
In short: as §3

windgrass [7] = assay: Test Example 4: herbicidal effect by soil treatment (Table 19, symbol L); format: in vivo, windgrass (Apera spica-venti); conditions: amount of applied herbicide 320 g/ha
In short: as §3

velvetleaf [8] = assay: Test Example 4: herbicidal effect by soil treatment (Table 19, symbol M); format: in vivo, velvetleaf (Abutilon theophrasti); conditions: amount of applied herbicide 320 g/ha
In short: as §3

redroot pigweed [9] = assay: Test Example 4: herbicidal effect by soil treatment (Table 19, symbol N); format: in vivo, redroot pigweed (Amaranthus retroflexus); conditions: amount of applied herbicide 320 g/ha
In short: as §3

lambsquarters [10] = assay: Test Example 4: herbicidal effect by soil treatment (Table 19, symbol O); format: in vivo, lambsquarters (Chenopodium album); conditions: amount of applied herbicide 320 g/ha
In short: as §3

false cleavers = assay: Test Example 4: herbicidal effect by soil treatment (Table 19, symbol Q); format: in vivo, false cleavers (Galium spurium); conditions: amount of applied herbicide 320 g/ha
In short: as §3

southern crabgrass [11] = assay: Test Example 5: herbicidal effect by foliage application, plastic box (Table 20, symbol F); format: in vivo, southern crabgrass (Digitaria ciliaris); conditions: foliage application
In short: (§4)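 Plants sown in sterilized diluvial soil and grown 14 days in a greenhouse at 25° C to 30° C, then sprayed on the foliage with the compound's emulsion diluted in water to a predetermined herbicide amount. Injury to weeds and crops scored three weeks after application on a visual rating scale.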

green foxtail [12] = assay: Test Example 5: herbicidal effect by foliage application, plastic box (Table 20, symbol G); format: in vivo, green foxtail (Setaria viridis); conditions: foliage application
In short: as §4

barnyard grass [13] = assay: Test Example 5: herbicidal effect by foliage application, plastic box (Table 20, symbol H); format: in vivo, barnyard grass (Echinochloa crus-galli); conditions: foliage application
In short: as §4

wild oat [14] = assay: Test Example 5: herbicidal effect by foliage application, plastic box (Table 20, symbol I); format: in vivo, wild oat (Avena fatua); conditions: foliage application
In short: as §4

blackgrass [15] = assay: Test Example 5: herbicidal effect by foliage application, plastic box (Table 20, symbol J); format: in vivo, blackgrass (Alopecurus myosuroides); conditions: foliage application
In short: as §4

Italian ryegrass [16] = assay: Test Example 5: herbicidal effect by foliage application, plastic box (Table 20, symbol K); format: in vivo, Italian ryegrass (Lolium multiflorum); conditions: foliage application
In short: as §4

windgrass [17] = assay: Test Example 5: herbicidal effect by foliage application, plastic box (Table 20, symbol L); format: in vivo, windgrass (Apera spica-venti); conditions: foliage application
In short: as §4

velvetleaf [18] = assay: Test Example 5: herbicidal effect by foliage application, plastic box (Table 20, symbol M); format: in vivo, velvetleaf (Abutilon theophrasti); conditions: foliage application
In short: as §4

redroot pigweed [19] = assay: Test Example 5: herbicidal effect by foliage application, plastic box (Table 20, symbol N); format: in vivo, redroot pigweed (Amaranthus retroflexus); conditions: foliage application, AAH 320 g/ha, evaluated three weeks after application
In short: as §4

lambsquarters [20] = assay: Test Example 5: herbicidal effect by foliage application, plastic box (Table 20, symbol O); format: in vivo, lambsquarters (Chenopodium album); conditions: foliage application
In short: as §4

chickweed = assay: Test Example 5: herbicidal effect by foliage application, plastic box (Table 20, symbol P); format: in vivo, common chickweed (Stellaria media); conditions: foliage application, AAH 320 g/ha, evaluated three weeks after application
In short: as §4

persian speedwell = assay: Test Example 5: herbicidal effect by foliage application, plastic box (Table 20, symbol R); format: in vivo, Persian speedwell (Veronica persica); conditions: foliage application
In short: as §4

blackgrass [21] = assay: Test Example 4: herbicidal effect by soil treatment (Table 19, symbol J); format: in vivo, blackgrass (Alopecurus myosuroides); conditions: amount of applied herbicide 320 g/ha
In short: as §3

[22] = AAH 320 g/ha, evaluated three weeks after application
[23] = amount of applied herbicide 320 g/ha
[24] = 320 g/ha, three weeks after application

## Cc1nn(C)c(=O)c(-c2c(-c3ccc(COCC(F)(F)F)cc3)sc3ccc(F)cc23)c1O [2-315]
Late watergrass; 320 g/ha applied herbicide
  Herbicidal effect on A: late watergrass (grade 0-5): 4 (Herbicidal rate of 70% or more and less than 90%)
Japanese bulrush; 320 g/ha applied herbicide
  Herbicidal effect on B: Japanese bulrush (grade 0-5): 0 (Herbicidal rate of 5% or less (almost no effect))
oval-leafed pondweed; 320 g/ha applied herbicide
  Herbicidal effect on C: oval-leafed pondweed (grade 0-5): 0 (Herbicidal rate of 5% or less (almost no effect))
Barnyard grass [1]
  herbicidal effect on H: barnyard grass: 5 (Herbicidal rate of 90% or more (almost completely withered))
Chinese sprangletop
  herbicidal effect on D: Chinese sprangletop: 3 (Herbicidal rate of 40% or more and less than 70%)
Rice flat sedge
  herbicidal effect on E: rice flat sedge: 5 (Herbicidal rate of 90% or more (almost completely withered))
Southern crabgrass [2]
  herbicidal effect on F: southern crabgrass: 2 (Herbicidal rate of 20% or more and less than 40%)
Green foxtail [3]
  herbicidal effect on G: green foxtail: 3 (Herbicidal rate of 40% or more and less than 70%)
Barnyard grass [4]
  herbicidal effect on H: barnyard grass: 3 (Herbicidal rate of 40% or more and less than 70%)
Wild oat [5]
  herbicidal effect on I: wild oat: 0 (Herbicidal rate of 5% or less (almost no effect))
Italian ryegrass [6]
  herbicidal effect on K: Italian ryegrass: 4 (Herbicidal rate of 70% or more and less than 90%)
Windgrass [7]
  herbicidal effect on L: windgrass: 0 (Herbicidal rate of 5% or less (almost no effect))
Velvetleaf [8]
  herbicidal effect on M: velvetleaf: 4 (Herbicidal rate of 70% or more and less than 90%)
Redroot pigweed [9]
  herbicidal effect on N: redroot pigweed: 5 (Herbicidal rate of 90% or more (almost completely withered))
Lambsquarters [10]
  herbicidal effect on O: lambsquarters: 5 (Herbicidal rate of 90% or more (almost completely withered))
False cleavers
  herbicidal effect on Q: false cleavers: 5 (Herbicidal rate of 90% or more (almost completely withered))
Southern crabgrass [11]; [22]
  F: southern crabgrass, herbicidal effect (criteria 0-5): 4 (Herbicidal rate of 70% or more and less than 90%)
Green foxtail [12]; [22]
  G: green foxtail, herbicidal effect (criteria 0-5): 5 (Herbicidal rate of 90% or more (almost completely withered))
Barnyard grass [13]; [22]
  H: barnyard grass, herbicidal effect (criteria 0-5): 5 (Herbicidal rate of 90% or more (almost completely withered))
Wild oat [14]; [22]
  I: wild oat, herbicidal effect (criteria 0-5): 0 (Herbicidal rate of 5% or less (almost no effect))
Blackgrass [15]; [22]
  J: blackgrass, herbicidal effect (criteria 0-5): 5 (Herbicidal rate of 90% or more (almost completely withered))
Italian ryegrass [16]; [22]
  K: Italian ryegrass, herbicidal effect (criteria 0-5): 5 (Herbicidal rate of 90% or more (almost completely withered))
Windgrass [17]; [22]
  L: windgrass, herbicidal effect (criteria 0-5): 5 (Herbicidal rate of 90% or more (almost completely withered))
Velvetleaf [18]; [22]
  M: velvetleaf, herbicidal effect (criteria 0-5): 5 (Herbicidal rate of 90% or more (almost completely withered))
Redroot pigweed [19]
  N: redroot pigweed, herbicidal effect (criteria 0-5): 5 (Herbicidal rate of 90% or more (almost completely withered))
Lambsquarters [20]; [22]
  O: lambsquarters, herbicidal effect (criteria 0-5): 5 (Herbicidal rate of 90% or more (almost completely withered))
chickweed
  P: chickweed, herbicidal effect (criteria 0-5): 5 (Herbicidal rate of 90% or more (almost completely withered))
Persian speedwell; [22]
  R: persian speedwell, herbicidal effect (criteria 0-5): 5 (Herbicidal rate of 90% or more (almost completely withered))

## COCc1ccc(-c2oc3ccc(F)cc3c2-c2c(O)c(C)nn(C)c2=O)cc1 [9-043]
Late watergrass; [23]
  Herbicidal effect, A: late watergrass: 3 (Herbicidal rate of 40% or more and less than 70%)
Japanese bulrush; [23]
  Herbicidal effect, B: Japanese bulrush: 0 (Herbicidal rate of 5% or less (almost no effect))
oval-leafed pondweed; [23]
  Herbicidal effect, C: oval-leafed pondweed: 2 (Herbicidal rate of 20% or more and less than 40%)
Barnyard grass [1]
  Herbicidal effect on H (barnyard grass), foliage application: 4 (Herbicidal rate of 70% or more and less than 90%)
Chinese sprangletop
  Herbicidal effect on D (Chinese sprangletop), foliage application: 3 (Herbicidal rate of 40% or more and less than 70%)
Rice flat sedge
  Herbicidal effect on E (rice flat sedge), foliage application: 5 (Herbicidal rate of 90% or more (almost completely withered))
Southern crabgrass [2]
  F: southern crabgrass, herbicidal effect grade: 4 (Herbicidal rate of 70% or more and less than 90%)
Green foxtail [3]
  G: green foxtail, herbicidal effect grade: 5 (Herbicidal rate of 90% or more (almost completely withered))
Barnyard grass [4]
  H: barnyard grass, herbicidal effect grade: 4 (Herbicidal rate of 70% or more and less than 90%)
Wild oat [5]
  I: wild oat, herbicidal effect grade: 0 (Herbicidal rate of 5% or less (almost no effect))
Blackgrass [21]
  J: blackgrass, herbicidal effect grade: 4 (Herbicidal rate of 70% or more and less than 90%)
Italian ryegrass [6]
  K: Italian ryegrass, herbicidal effect grade: 5 (Herbicidal rate of 90% or more (almost completely withered))
Windgrass [7]
  L: windgrass, herbicidal effect grade: 0 (Herbicidal rate of 5% or less (almost no effect))
Velvetleaf [8]
  M: velvetleaf, herbicidal effect grade: 4 (Herbicidal rate of 70% or more and less than 90%)
Redroot pigweed [9]
  N: redroot pigweed, herbicidal effect grade: 5 (Herbicidal rate of 90% or more (almost completely withered))
Lambsquarters [10]
  O: lambsquarters, herbicidal effect grade: 3 (Herbicidal rate of 40% or more and less than 70%)
False cleavers
  Q: false cleavers, herbicidal effect grade: 0 (Herbicidal rate of 5% or less (almost no effect))
Southern crabgrass [11]; [24]
  herbicidal effect on southern crabgrass (F): 3 (Herbicidal rate of 40% or more and less than 70%)
Green foxtail [12]; [24]
  herbicidal effect on green foxtail (G): 4 (Herbicidal rate of 70% or more and less than 90%)
Barnyard grass [13]; [24]
  herbicidal effect on barnyard grass (H): 3 (Herbicidal rate of 40% or more and less than 70%)
Wild oat [14]; [24]
  herbicidal effect on wild oat (I): 0 (Herbicidal rate of 5% or less (almost no effect))
Blackgrass [15]; [24]
  herbicidal effect on blackgrass (J): 4 (Herbicidal rate of 70% or more and less than 90%)
Italian ryegrass [16]; [24]
  herbicidal effect on Italian ryegrass (K): 5 (Herbicidal rate of 90% or more (almost completely withered))
Windgrass [17]; [24]
  herbicidal effect on windgrass (L): 0 (Herbicidal rate of 5% or less (almost no effect))
Velvetleaf [18]; [24]
  herbicidal effect on velvetleaf (M): 4 (Herbicidal rate of 70% or more and less than 90%)
Lambsquarters [20]; [24]
  herbicidal effect on lambsquarters (O): 4 (Herbicidal rate of 70% or more and less than 90%)
Persian speedwell; [24]
  herbicidal effect on persian speedwell (R): 5 (Herbicidal rate of 90% or more (almost completely withered))
